Experiments:
human thrombin = human thrombin (Homo sapiens, UniProt P00734); test: Measurement of Thrombin Inhibition (chromogenic substrate S-2238); assay type: biochemical; settings: test b), read-out: IC50 against thrombin
Source text: b) Measurement of Thrombin Inhibition
The procedure of method a) was repeated except that human thrombin (0.005 Units/ml) and the chromogenic substrate S-2238 (KabiVitum AB) were employed.

[1] = system: Alderley Park Wistar rats; test: Ex vivo Assay of Anticoagulant Activity (APTT and PT coagulation assays after dosing); assay type: in vivo; settings: test d), rat
Experimental: d) An ex vivo Assay of Anticoagulant Activity
The test compound was administered intravenously or orally to a group of Alderley Park Wistar rats. At various times thereafter animals were anaesthetised, blood was collected and APTT and PT coagulation assays analogous to those described hereinbefore were conducted.

[2] = system: Alderley Park Wistar rats; test: In vivo Measurement of Antithrombotic Activity (thromboplastin/stasis-induced vena cava thrombus); settings: test e), rat, 5 mg/kg dose
Experimental: e) An in vivo Measurement of Antithrombotic Activity
Thrombus formation was induced using an analogous method to that described by Vogel et al., Thromb. Research, 1989, 54, 399-410. A group of Alderley Park Wistar rats was anaesthetised and surgery was performed to expose the vena cava. […] Test compound was administered intravenously or orally. At an appropriate time thereafter tissue thromboplastin (1 ml/kg) was administered into the jugular vein and, after 10 seconds, the two sutures were tightened to induce stasis within the ligated portion of vena cava. After 10 minutes the ligated tissue was excised and the thrombus therein was isolated, blotted and weighed.

human blood plasma [3] = test: Measurement of Anticoagulant Activity in vitro, activated partial thromboplastin time (APTT) test; assay type: biochemical; settings: test c)
Experimental: (§1) c) Measurement of Anticoagulant Activity
(§2) An in vitro assay whereby human venous blood was collected and added directly to a sodium citrate solution (3.2 g/100 ml, 9 parts blood to 1 part citrate solution). Blood plasma was prepared by contrifugation (1000 g, 15 minutes) and stored at 2-4° C. Conventional activated partial thromboplastin time (APTT) and prothrombin time (PT) tests were carried out in the presence of various concentrations of a test compound and the concentration of test compound required to double the clotting time, hereinafter referred to as CT2, was determined. In the APTT test, the test compound, blood plasma and APTT reagent were incubated at 37° C. for 3 minutes. Calcium chloride (0.02M) was added and fibrin formation and the time required for a clot to form were determined. In the PT test, an analogous procedure was followed except that tissue thromboplastin was used in place of APTT reagent.

human Factor Xa = human Factor Xa (Homo sapiens, UniProt P00742); test: Measurement of Factor Xa Inhibition (chromogenic substrate S-2765); assay type: biochemical; settings: test a), pH7.5, 37° C., read-out: IC50 against Factor Xa
Experimental: a) Measurement of Factor Xa Inhibition
An in vitro assay system was carried out based on the method of Kettner et al., J. Biol. Chem., 1990, 265, 18289-18297, whereby various concentrations of a test compound were dissolved in a pH7.5 buffer containing 0.5% of polyethylene glycol and incubated at 37° C. with human Factor Xa (0.001 Units/ml, 0.3 ml) for 15 minutes. The chromogenic substrate S-2765 (KabiVitum AB, 20 μM) was added and the mixture was incubated at 37° C. for 20 minutes whilst the absorbance at 405 nm was measured. The maximum reaction velocity (Vmax) was determined and compared with that of a control sample containing no test compound. Inhibitor potency was expressed as an IC50 value.

human blood plasma [4] = test: Measurement of Anticoagulant Activity in vitro, prothrombin time (PT) test; assay type: biochemical; settings: test c)
Experimental: as §1, §2

Sequence of human Factor Xa (P00742 235-488 limits assumed): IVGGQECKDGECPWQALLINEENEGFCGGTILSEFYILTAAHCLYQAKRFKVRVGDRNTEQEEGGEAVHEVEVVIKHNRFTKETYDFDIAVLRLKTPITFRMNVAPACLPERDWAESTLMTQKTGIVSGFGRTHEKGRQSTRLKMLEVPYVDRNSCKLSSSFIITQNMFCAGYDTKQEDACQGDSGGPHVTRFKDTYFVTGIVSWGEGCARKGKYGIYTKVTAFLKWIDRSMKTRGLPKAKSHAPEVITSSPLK
Sequence of human Factor Xa (P00742 41-179 partner limits assumed): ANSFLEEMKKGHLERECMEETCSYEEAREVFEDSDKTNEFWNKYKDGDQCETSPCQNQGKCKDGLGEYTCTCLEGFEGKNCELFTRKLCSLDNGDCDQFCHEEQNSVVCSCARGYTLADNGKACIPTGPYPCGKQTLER

Row | SMILES | IC50 (human thrombin) | IC50 (human Factor Xa) | melting point | clotting time following intravenous administration ([1]; 10 mg/kg dose) | thrombus weight following intravenous administration [2] | CT2 (APTT), concentration required to double the clotting time (human blood plasma [3]) | CT2 (PT), concentration required to double the clotting time (human blood plasma [4]) | clotting time following intravenous administration ([1]; 5 mg/kg dose)
1 | O=C(C1CCN(c2ccncc2)CC1)N1CCN(S(=O)(=O)c2ccc3cc(Cl)ccc3c2)CC1 [Example 40, Compound No. 5, 1-(6-chloronaphth-2-ylsulphonyl)-4-[1-(4-pyridyl)piperidin-4-ylcarbonyl]piperazine] | 34000 nM | 3 nM |  |  |  | 1.2 µM | 0.5 µM | increased clotting time
2 | CCOC(=O)C1CN(S(=O)(=O)c2ccc3cc(Cl)ccc3c2)CCN1C(=O)C1CCN(c2ccncc2)CC1 (stereo not drawn) [Example 62, 4-(6-chloronaphth-2-ylsulphonyl)-2-ethoxycarbonyl-1-[1-(4-pyridyl)-piperidin-4-ylcarbonyl]piperazine] | > 10000 nM | 2 nM |  |  |  |  | 0.7 µM | increased clotting time
3 | O=C(O)C1CN(S(=O)(=O)c2ccc3cc(Cl)ccc3c2)CCN1C(=O)C1CCN(c2ccncc2)CC1 (stereo not drawn) [Example 63, 2-carboxy-4-(6-chloronaphth-2-ylsulphonyl)-1-[1-(4-pyridyl)piperidin-4-ylcarbonyl]-piperazine] | > 10000 nM | 8 nM | 215 to 220 °C (dec.) |  | reduced thrombus weight |  | 4.6 µM | increased clotting time

The next lines start with results.

Row | IC50 (human thrombin) | IC50 (human Factor Xa) | melting point | SMILES | clotting time following intravenous administration ([1]; 10 mg/kg dose) | thrombus weight following intravenous administration [2] | CT2 (APTT), concentration required to double the clotting time (human blood plasma [3]) | CT2 (PT), concentration required to double the clotting time (human blood plasma [4]) | clotting time following intravenous administration ([1]; 5 mg/kg dose)
4 | > 100000 nM | 300 nM |  | O=C(CNS(=O)(=O)c1ccc2ccccc2c1)NC(CNC(=O)C1CCN(c2ccncc2)CC1)C(=O)N1CCCCC1 (stereo not drawn) [Example 1, 2-(2-naphthalenesulphonamido)-N-{1-piperidinocarbonyl-2-[1-(4-pyridyl)-piperidin-4-ylcarbonylamino]ethyl}acetamide] | increased clotting time | reduced thrombus weight | 62 µM | 14 µM | 
5 | > 100000 nM | 12 nM |  | O=C(C1CCN(c2ccncc2)CC1)N1CCN(S(=O)(=O)/C=C/c2ccc(Cl)cc2)CC1 [Example 39, Compound No. 2, 1-[(E)-4-chlorostyrylsulphonyl]-4-[-1-(4-pyridyl)piperidin-4-ylcarbonyl]piperazine] |  | reduced thrombus weight | 1.8 µM | 1 µM | increased clotting time
